Data on 3 compounds can be found in patent US11026925B2, “Angiotensin II receptor antagonist metabolite and NEP inhibitor composite and preparation method thereof” (SHENZHEN SALUBRIS PHARMACEUTICALS CO. LTD, priority 2016, dated 2021).

Molecules are shown by their SMILES. Counter-ions that a name gives are not always drawn.

Data set [1] deals with animal model with heart failure (ligation of left anterior descending coronary artery). Nature of the data set: anti-heart failure activity (short term, acute) in animal model (rat). The format is in vivo. Particulars: for mAP / mLVP: 7 days before and 3 days after ligation, measured Day 11; for improvement effect on mAP and mLVP / effect on lowering blood pressure compared with untreated animal group: short-term administration, rat. How it is done:
The animal model with heart failure using ligation of left anterior descending coronary artery was prepared, the therapeutic drug to the modeling animal was administrated by pre-gavage, once per day for 7 continuous days, and was continuously administrated for three days after successful modeling.
SD male rats aged 6-week old;
Pre-test preparation: All animals were divided into 5 groups by randomized blocks, 6 rats in each group, and the animals were acclimated for 3 days before test treatment; Experimental process: Therapeutic drug was given to the test animals by pre-gavage, once per day for 7 continuous days. Operation was conducted on Day 8, the animals were anesthetized, trachea was connected to a respirator, electrocardiograph (ECG) was connected for real-time recording, thoracic cavity was opened between the 3rd and 4th ribs, left anterior descending coronary artery was ligated, ST segment elevation of ECG indicated successful ligation, the thoracic cavity was closed, and the skin was sutured;
The animals were anesthetized on Day 11, ECG was measured, and then arterial pressure and left ventricular pressure were measured by carotid artery intubation.

Data set [2] has the same test system. The data set can be described thus: anti-heart failure activity (long term, chronic) in animal model (rat). Format: in vivo.
The conditions of data set [3]: singly used as medication; cited from earlier work.
Data set [4] in a line: Hygroscopicity (plain sample) at RH 75% and RH 85%. Format: physicochemical.
A short description of data set [5]: Flowability (angle of repose, bulk density). Format: physicochemical.
The test system of data set [6] is patients with heart failure. Particulars: compared with the enalapril treatment group; cited from earlier work.
[7] abbreviates: 30 mg/kg gavage once per day for 4 weeks.
Where [8] appears, read: 68 mg/kg gavage once per day for 4 weeks.
The mark [9] stands for this setting: samples crushed to particle size distribution similar to LCZ696.

Regarding `CCOC(=O)[C@H](C)C[C@@H](Cc1ccc(-c2ccccc2)cc1)NC(=O)CCC(=O)O` [AHU377 calcium salt, AHU377 (Sacubitril, CAS: 149709-62-6)], in data set [1] (30 mg/kg gavage once per day), the mAP is recorded as 104 mmHg and the mLVP came to 63 mmHg. Also, the “improvement effect on mAP and mLVP / effect on lowering blood pressure compared with untreated animal group” value in data set [1] is listed as “not significant”. Further, in data set [2] (setting [7]), the Ejection fraction is reported as 53.3%, the Heart rate was found to be 378.9 beats/min, the Myocardial fibrosis was 54.88% and the “Thickness of heart wall” value is given as 0.137 cm.
In data set [1] (30 mg/kg gavage once per day), `CCCCc1nc(Cl)c(C(=O)O)n1Cc1ccc(-c2ccccc2-c2nnn[nH]2)cc1` [EXP3174] returned a mAP of 106 mmHg and a mLVP of 61 mmHg. Also, the “improvement effect on mAP and mLVP / effect on lowering blood pressure compared with untreated animal group” value in data set [1] is “not significant”. In addition, in data set [2] (setting [7]), the Ejection fraction came to 47.9%, the Heart rate was found to be 427.8 beats/min, the Myocardial fibrosis amounted to 62.89% and the “Thickness of heart wall” value amounted to 0.136 cm. For the same compound, in data set [3], the bioavailability entry was “low bioavailability”.
With `CCCCC(=O)N(Cc1ccc(-c2ccccc2-c2nnn[n-]2)cc1)[C@H](C(=O)[O-])C(C)C.CCOC(=O)[C@H](C)C[C@@H](Cc1ccc(-c2ccccc2)cc1)NC(=O)CCC(=O)[O-].O.[Na+].[Na+].[Na+]` [LCZ696], in data set [1] (68 mg/kg gavage once per day), the mAP worked out at 78 mmHg and the mLVP is listed as 44 mmHg. In addition, in data set [2] (setting [8]), the Ejection fraction is 70.6%, the Heart rate was determined as 412.9 beats/min and the Myocardial fibrosis was determined as 11.51%. Further, the “state of test samples at the end of the hygroscopicity experiment” value in data set [4] (RH 75% and RH 85%, end of experiment) is reported as “completely deliquescent”. For the same compound, in data set [4] (RH 75%, Day 0, plain sample), the “water content, RH 75% Day 0” value turned out to be 4.9%. The “water content, RH 85% Day 0” value in data set [4] (RH 85%, Day 0, plain sample) is 4.9%. For the same compound, in data set [5] (powder property test), the “electrostatic phenomenon of powder” value was “electrostatic phenomenon” and the “flowability (in words)” value was “hardly flowable”. Also, in data set [5] (setting [9]), the Angle of repose was 57.35 ° and the Bulk density is 0.527 g/mL. For the same compound, in data set [6], the “reduction of hospitalization rate of patients with heart failure” value is 21%.
